Measured values reported in patent publication US11274111B2, “Arginase inhibitors and methods of use” (Merck Sharp & Dohme Corp., priority 2018, dated 2022).
pIC50: −log10 of the molar value. Counter-ions that a name gives are not always drawn.

Target: T1, Arginase (Homo sapiens, UniProt P05089)
T1 construct: Arginase protein was recombinantly expressed in Escherichia coli
T1 sequence (P05089 1-322): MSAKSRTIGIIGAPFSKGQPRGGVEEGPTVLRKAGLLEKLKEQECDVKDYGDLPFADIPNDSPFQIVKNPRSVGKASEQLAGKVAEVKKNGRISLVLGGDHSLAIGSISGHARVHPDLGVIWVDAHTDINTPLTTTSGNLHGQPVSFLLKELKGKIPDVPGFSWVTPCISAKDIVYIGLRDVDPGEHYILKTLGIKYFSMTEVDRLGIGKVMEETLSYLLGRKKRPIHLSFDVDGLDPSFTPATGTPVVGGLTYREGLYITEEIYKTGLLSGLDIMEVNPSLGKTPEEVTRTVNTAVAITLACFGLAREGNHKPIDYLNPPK
Test: Arginase Thioornithine Generating Assay (TOGA)
Format: biochemical
Details: for inhibition at 10 µM / Percent Inhibition at Top Dose: Top Dose 10000 nM; for inhibition at 10 µM: read-out: Percent Inhibition at Top Dose; for pIC50: recombinant arginase 1.88 nM, thioarginine substrate
Procedure: Arginase Thioornithine Generating Assay (TOGA)
Compounds were serially diluted in ten 3-fold steps in DMSO starting from 10 mM DMSO stocks. Compound dilutions or DMSO alone were then dispensed from the dilution plate into a Greiner black 384-well assay plate (catalog #781086) using an Echo 555 acoustic liquid handler (Labcyte).
Arginase protein was recombinantly expressed in Escherichia coli. Purified protein was then diluted in assay buffer (50 mM Tris pH 7.5, 50 mM NaCl, 1 mM manganese chloride, 0.05% bovine serum albumin to obtain a final Arginase concentration of 1.88 nM. Arginase solution (20 μL) or buffer alone (20 μL) were dispensed to wells of the assay plate using a BioRAPTR liquid dispenser (Beckman Coulter). Assay plates containing compound and arginase enzyme were incubated at room temperature for 30 minutes. Afterwards, 5 μL of 2.5 mM thioarginine (Cayman Chemicals) in assay buffer were added to each well of the assay plate using a BioRAPTR liquid dispenser. Plates were incubated at room temperature for 60 minutes and reactions were quenched by addition of 15 μL of 200 uM 7-Diethylamine-3-(4-maleimidophenyl)-4-methylcoumarin (Sigma Chemical) in 70% ethanol. Plates were briefly shaken to mix and the fluorescence was measured in an Spectramax plate reader (Molecular Devices) with a 410 nm excitation wavelength and an 490 nm emission wavelength.
Potencies were calculated by […] to the four parameter logistic IC50 equation.

Row | inhibition at 10 µM | pIC50 | Molecule | Percent Inhibition at Top Dose
1 | 94.7% | – | NC1(C(=O)O)c2cccnc2CC1CCCB(O)O (centres unmarked) [Example 39, 5-amino-6-(3-boronopropyl)-6,7-dihydro-5H-cyclopenta[b]pyridine-5-carboxylic acid] | –
2 | 91.4% | – | NC1(C(=O)O)C(CCCB(O)O)CC2NCCCC21 (centres unmarked) [Example 40, 5-amino-6-(3-boronopropyl)octahydro-1H-cyclopenta[b]pyridine-5-carboxylic acid] | –
3 | 97.7% | – | NC1(C(=O)O)CC2(CCNC2)OC1CCCB(O)O (centres unmarked) [Example 41, 3-amino-2-(3-boronopropyl)-1-oxa-7-azaspiro[4.4]nonane-3-carboxylic acid] | –
4 | 98% | 7.28 | CC(C)[C@H](N)C(=O)N1C[C@@H]2C[C@@](N)(C(=O)O)[C@@H](CCCB(O)O)[C@@H]2C1 [Example 42, (3aR,4S,5S,6aR)-2-(L-valyl)-5-amino-4-(3-boronopropyl)octahydrocyclopenta[c]pyrrole-5-carboxylic acid] | –
5 | 97.1% | 6.59 | N[C@@]1(C(=O)O)C[C@H]2C[C@@H](O)C[C@H]2[C@@H]1CCCB(O)O [Example 44a, (1S,2S,3aS,5R,6aR)-2-amino-1-(3-boronopropyl)-5-hydroxyoctahydropentalene-2-carboxylic acid] | –
6 | 97.4% | 6.75 | N[C@@]1(C(=O)O)C[C@H]2C[C@H](O)C[C@H]2[C@@H]1CCCB(O)O [Example 44b, (1S,2S,3aS,5S,6aR)-2-amino-1-(3-boronopropyl)-5-hydroxyoctahydropentalene-2-carboxylic acid] | –
7 | 99.4% | – | N[C@H]1C[C@@H]2C[C@@](N)(C(=O)O)[C@@H](CCCB(O)O)[C@@H]2C1 [Example 45, (1S,2S,3aR,5S,6aR)-2,5-diamino-1-(3-boronopropyl)octahydropentalene-2-carboxylic acid] | –
8 | 96.8% | 6.28 | C[C@H](N)C(=O)N[C@H]1C[C@@H]2C[C@@](N)(C(=O)O)[C@@H](CCCB(O)O)[C@@H]2C1 [Example 46, (1S,2S,3aR,5S,6aR)-2-amino-5-((S)-2-aminopropanamido)-1-(3-boronopropyl)octahydropentalene-2-carboxylic acid] | –
9 | 94.2% | 6.28 | CC(C)[C@H](N)C(=O)N[C@H]1C[C@@H]2C[C@@](N)(C(=O)O)[C@@H](CCCB(O)O)[C@@H]2C1 [Example 47, (1S,2S,3aR,5S,6aR)-2-amino-5-((S)-2-amino-3-methylbutanamido)-1-(3-boronopropyl)octahydropentalene-2-carboxylic acid] | –
10 | 98.4% | – | N[C@@]1(C(=O)O)C[C@H]2C[C@@H](NCCO)C[C@H]2[C@@H]1CCCB(O)O [Example 48, (1S,2S,3aR,5R,6aR)-2-amino-1-(3-boronopropyl)-5-((2-hydroxyethyl)amino)octahydropentalene-2-carboxylic acid] | –
11 | 85.9% | – | N[C@@]1(C(=O)O)C[C@H]2C[C@@H](NCC(F)(F)F)C[C@H]2[C@@H]1CCCB(O)O [Example 49, (1S,2S,3aR,5R,6aR)-2-amino-1-(3-boronopropyl)-5-((2,2,2-trifluoroethyl)amino)octahydropentalene-2-carboxylic acid] | –
12 | 97.8% | – | CN(C)[C@@H]1C[C@@H]2C[C@@](N)(C(=O)O)[C@@H](CCCB(O)O)[C@@H]2C1 [Example 50, (1S,2S,3aR,5R,6aR)-2-amino-1-(3-boronopropyl)-5-(dimethylamino)octahydropentalene-2-carboxylic acid] | –
13 | 99.6% | 7.48 | CN[C@@H]1C[C@@H]2C[C@@](N)(C(=O)O)[C@@H](CCCB(O)O)[C@@H]2C1 [Example 51a, (1S,2S,3aR,5R,6aR)-2-amino-1-(3-boronopropyl)-5-(methylamino)octahydropentalene-2-carboxylic acid] | –
14 | 101% | – | N[C@@]1(C(=O)O)C[C@H]2[C@H](F)[C@@H](O)C[C@H]2[C@@H]1CCCB(O)O [Example 54a, (1S,2S,3aR,4S,5S,6aS)-2-amino-1-(3-boronopropyl)-4-fluoro-5-hydroxyoctahydropentalene-2-carboxylate] | –
15 | – | 7.37 | (1S,2S,3aR,4S,5R,6aS)-2-amino-1-(3-boronopropyl)-4-fluoro-5-hydroxyoctahydropentalene-2-carboxylate [Example 54b] | 100.1%
16 | – | 7.69 | (1S,2S,3aR,5S,6aR)-2-amino-1-(3-boronopropyl)-5-(methylamino)octahydropentalene-2-carboxylate [Example 51b] | 98.67%

Further lines, the molecule ahead of its results:

Row | Molecule | inhibition at 10 µM | pIC50 | Percent Inhibition at Top Dose
17 | NC1(C(=O)O)c2cnccc2CC1CCCB(O)O (centres unmarked) [Example 30, 7-amino-6-(3-boronopropyl)-6,7-dihydro-5H-cyclopenta[c]pyridine-7-carboxylic acid] | 87.3% | – | –
18 | CC1NC[C@@H]2[C@H]1CC(N)(C(=O)O)[C@H]2CCCB(O)O (stereo partly drawn) [Example 31a, (3aR,4S,6aR)-5-amino-4-(3-boronopropyl)-1-methyloctahydrocyclopenta[c]pyrrole-5-carboxylic acid] | 89.9% | – | –
19 | C[C@@H]1NC[C@@H]2CC(N)(C(=O)O)[C@@H](CCCB(O)O)C21 (stereo partly drawn) [Example 31b, (3aR,6S,6aR)-5-amino-6-(3-boronopropyl)-1-methyloctahydrocyclopenta[c]pyrrole-5-carboxylic acid, HFBA Salt] | 70% | – | –
20 | CN(C)C[C@]12C[C@H]1CC(CCCB(O)O)C2(N)C(=O)O (stereo partly drawn) [Example 33a, (1S,5R)-2-amino-3-(3-boronopropyl)-1-((dimethylamino)methyl)bicyclo[3.1.0]hexane-2-carboxylic acid] | 62.7% | – | –
21 | NC1(C(=O)O)CC2CCCC2C1CCCB(O)O (centres unmarked) [Example 34a, 2-amino-1-(3-boronopropyl)octahydropentalene-2-carboxylic acid] | 22.2% | – | –
22 | NC1(C(=O)O)CC2(CNC2)CC1CCCB(O)O (centres unmarked) [Example 35a, 6-amino-7-(3-boronopropyl)-2-azaspiro[3.4]octane-6-carboxylic acid] | 99.7% | 6.63 | –
23 | N[C@]1(C(=O)O)[C@H](CCCB(O)O)C[C@H]2C[C@H]21 [Example 36b, (1R,2R,3R,5R)-2-amino-3-(3-boronopropyl)bicyclo[3.1.0]hexane-2-carboxylic acid] | 47.4% | – | –
24 | NC1(C(=O)O)CC2(CCCN2)CC1CCCB(O)O (stereo not drawn) [Example 37a, rel-7-amino-8-(3-boronopropyl)-1-azaspiro[4.4]nonane-7-carboxylic acid] | 98% | – | –
25 | NC1(C(=O)O)CN2CCNC[C@H]2C1CCCB(O)O (stereo partly drawn) [Example 38a, (8aR)-7-amino-8-(3-boronopropyl)octahydropyrrolo[1,2-a]pyrazine-7-carboxylic acid] | 63% | – | –
26 | (1S,2S,3aR,4S,5R,6aS)-2-amino-1-(3-boronopropyl)-4-fluoro-5-(methylamino)octahydropentalene-2-carboxylate [Example 55a] | – | 7.63 | 103.1%
27 | (1S,2S,3aR,4S,5S,6aS)-2-amino-1-(3-boronopropyl)-4-fluoro-5-(methylamino)octahydropentalene-2-carboxylate [Example 55b] | – | 7.84 | 101.7%
28 | (1S,2S,3aR,5R,6R,6aR)-2-amino-1-(3-boronopropyl)-6-fluoro-5-(methylamino)octahydropentalene-2-carboxylate [Example 53b] | – | 8.16 | 100%
29 | (1S,2S,3aS,5R,6R,6aR)-2-amino-1-(3-boronopropyl)-6-fluoro-5-hydroxyoctahydropentalene-2-carboxylate [Example 52b] | – | 7.43 | 99.46%
30 | (1S,2S,3aS,5S,6R,6aR)-2-amino-1-(3-boronopropyl)-6-fluoro-5-hydroxyoctahydropentalene-2-carboxylate [Example 52a] | – | 6.66 | 96.25%
